These results are taken from US10988478B1, “Pyrazolo[1,5a]pyrimidine derivatives as IRAK4 modulators” (Genentech, Inc., priority 2015, dated 2021).

The structures appear in SMILES notation.

Chain of human IRAK4 (Q9NWZ3 whole entry, the tested form may be a part): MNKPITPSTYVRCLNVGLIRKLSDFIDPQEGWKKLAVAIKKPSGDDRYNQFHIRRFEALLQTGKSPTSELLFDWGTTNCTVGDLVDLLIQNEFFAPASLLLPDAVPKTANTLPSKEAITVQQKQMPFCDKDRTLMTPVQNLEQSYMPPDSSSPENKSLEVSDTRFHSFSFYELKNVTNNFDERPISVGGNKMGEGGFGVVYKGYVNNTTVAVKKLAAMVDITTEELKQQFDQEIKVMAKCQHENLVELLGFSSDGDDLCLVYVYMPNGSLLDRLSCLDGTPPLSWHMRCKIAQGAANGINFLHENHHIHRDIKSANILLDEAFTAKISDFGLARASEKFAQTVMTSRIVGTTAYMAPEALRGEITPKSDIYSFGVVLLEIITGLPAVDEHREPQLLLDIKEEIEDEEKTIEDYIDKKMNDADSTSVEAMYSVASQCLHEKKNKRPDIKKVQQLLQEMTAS

The target of the experiment is human IRAK4 (Homo sapiens (Human), UniProt Q9NWZ3). Nature of the experiment: IRAK4 kinase inhibition, Transcreener fluorescence polarization ADP assay. In kind it is biochemical. The note with it: recombinant full-length His6-IRAK4; 125 uM ATP; 90 min; Ki computed using ATP Km 642 uM. On the procedure:
Compounds were assayed for inhibition of human IRAK4 and IRAK1 catalytic activity using recombinant enzyme produced from insect cells. Full-length IRAK4 protein, carrying an N-terminal His6-Tag, was obtained from Life Technologies (Carlsbad, Calif., USA). The IRAK1 construct was produced internally and was comprised of IRAK1 residues Arg194 to Ser712, preceded by an NH2-terminal His6 tag and the coding sequence for glutathione-S-transferase.
`CNc1cnc2c(C(=O)Nc3cc4c(cc3N3CCN(CC(F)F)CC3)O[C@@](C)(CO)C4)cnn2c1` [Example 382, (R)-N-(6-(4-(2,2-difluoroethyl)piperazin-1-yl)-2-(hydroxymethyl)-2-methyl-2,3-dihydrobenzofuran-5-yl)-6-(methylamino)pyrazolo[1,5-a]pyrimidine-3-carboxamide]: the Ki stood at 4 nM.
Take `CC(C(=O)NC1CC1)N1CCN(c2cc3c(cc2NC(=O)c2cnn4cccnc24)CC(C)(C)O3)CC1` (centres unmarked) [Example 244, N-(6-(4-(1-(Cyclopropylamino)-1-oxopropan-2-yl)piperazin-1-yl)-2,2-dimethyl-2,3-dihydrobenzofuran-5-yl)pyrazolo[1,5-a]pyrimidine-3-carboxamide]: the Ki came to 36 nM.
The result for `O=C(Nc1cc2c(cc1N1CCOCC1)C(=O)N(CC1CCCCO1)C2)c1cnn2cccnc12` (single isomer, unassigned) [Example 277, N-(6-morpholino-1-oxo-2-((tetrahydro-2H-pyran-2-yl)methyl)isoindolin-5-yl)pyrazolo[1,5-a]pyrimidine-3-carboxamide] reads 16 nM.
Then `CC1(C)Cc2cc(NC(=O)c3cnn4cc(CO)cnc34)c(N3CCOCC3)cc2O1` [Example 471, N-(2,2-dimethyl-6-morpholino-3H-benzofuran-5-yl)-6-(hydroxymethyl)pyrazolo[1,5-a]pyrimidine-3-carboxamide], with 6.5 nM.
Then `C[C@@]1(CO)Cc2cc(NC(=O)c3cnn4cccnc34)c(N3CCC([C@@](C)(O)C(F)(F)F)CC3)cc2O1` [Example 411, N—((S)-2-(hydroxymethyl)-2-methyl-6-(4-((R)-1,1,1-trifluoro-2-hydroxypropan-2-yl)piperidin-1-yl)-2,3-dihydrobenzofuran-5-yl)pyrazolo[1,5-a]pyrimidine-3-carboxamide], with 7.6 nM; and `CNC(=O)c1cnc2c(C(=O)Nc3cc4c(cc3N3CCOCC3)C(=O)N(C[C@@H](F)C(C)(C)O)C4)cnn2c1` [Example 492, N3-[2-[(2R)-2-Fluoro-3-hydroxy-3-methyl-butyl]-6-morpholino-1-oxo-isoindolin-5-yl]-N^6-methyl-pyrazolo[1,5-a]pyrimidine-3,6-dicarboxamide], with 9.1 nM.
For `CC(C)(O)[C@@]1(C)Cc2cc(NC(=O)c3cnn4cccnc34)c(N3CCN(CC(F)F)CC3)cc2O1` [Example 360, (R)—N-(6-(4-(2,2-Difluoroethyl)piperazin-1-yl)-2-(2-hydroxypropan-2-yl)-2-methyl-2,3-dihydrobenzofuran-5-yl)pyrazolo[1,5-a]pyrimidine-3-carboxamide], the Ki turned out to be 6.3 nM.
Then `Cc1cnc2c(C(=O)Nc3cc4c(cc3N3CCC(C(C)(C)O)CC3)O[C@](C)(CO)C4)cnn2c1` [Example 53, (S)—N-(2-(Hydroxymethyl)-6-(4-(2-hydroxypropan-2-yl)piperidin-1-yl)-2-methyl-2,3-dihydrobenzofuran-5-yl)-6-methylpyrazolo[1,5-a]pyrimidine-3-carboxamide], with 2.7 nM; and `CC(C)(O)[C@H](F)CN1Cc2cc(NC(=O)c3cnn4cccnc34)c(N3CCC([C@H](O)C(F)F)CC3)cc2C1=O` (single isomer, unassigned) [Example 282], with 2 nM; and `CC(C)(N)CN1CCN(c2cc3c(cc2NC(=O)c2cnn4cccnc24)CC(C)(C)O3)CC1` [Example 476, N-(6-(4-(2-amino-2-methylpropyl)piperazin-1-yl)-2,2-dimethyl-2,3-dihydrobenzofuran-5-yl)pyrazolo[1,5-a]pyrimidine-3-carboxamide], with 33 nM.
Regarding `CN1CCC(N2Cc3cc(NC(=O)c4cnn5cccnc45)c(N4CCN(CC(N)=O)CC4)cc3C2=O)CC1` [Example 281, N-[6-[4-(2-Amino-2-oxo-ethyl)piperazin-1-yl]-2-(1-methyl-4-piperidyl)-1-oxo-isoindolin-5-yl]pyrazolo[1,5-a]pyrimidine-3-carboxamide], the Ki amounted to 2.4 nM.
In the case of `CC1(C#N)CCN(c2cc3c(cc2NC(=O)c2cnn4cccnc24)CN(C[C@@H](F)C(C)(C)O)C3=O)CC1` [Example 569, N-[6-(4-Cyano-4-methyl-1-piperidyl)-2-[(2R)-2-fluoro-3-hydroxy-3-methyl-butyl]-1-oxo-isoindolin-5-yl]pyrazolo[1,5-a]pyrimidine-3-carboxamide], the inhibition constant Ki is 3.1 nM.
The result for `CC1(C)Cc2cc(NC(=O)c3cnn4cccnc34)c(-n3cnc(CO)c3)cc2O1` [Example 102, N-[6-[4-(hydroxymethyl)imidazo 1-1-yl]-2,2-dimethyl-3H-benzofuran-5-yl]pyrazolo[1,5-a]pyrimidine-3-carboxamide] reads 190 nM; that for `C[C@]1(CO)CCc2cc(NC(=O)c3cnn4cccnc34)c(N3CCOCC3)cc2O1` (single isomer, unassigned) [Example 432], 10 nM.
On to `C[C@@H](O)[C@@H](F)CN1Cc2cc(NC(=O)c3cnn4cccnc34)c(N3CCOCC3)cc2C1=O` [Example 558, N-[2-[(2S,3R)-2-fluoro-3-hydroxy-butyl]-6-morpholino-1-oxo-isoindolin-5-yl]pyrazolo[1,5-a]pyrimidine-3-carboxamide], for which the Ki came out at 8.4 nM.
On to `CC1(C)Cc2cc(NC(=O)c3cnn4cccnc34)c(N3C[C@H]4CCC(F)(F)[C@H]4C3)cc2O1` [Example 200, N-(6-((3aR,6aS)-4,4-difluorohexahydrocyclopenta[c]pyrrol-2(1H)-yl)-2,2-dimethyl-2,3-dihydrobenzofuran-5-yl)pyrazolo[1,5-a]pyrimidine-3-carboxamide], for which the Ki came to 22 nM.
Turning to `CC1(C)Cc2cc(NC(=O)c3cnn4cccnc34)c([C@@H]3C[C@H]3CO)cc2O1` [Example 397, N-(6-((1R,2R)-2-(Hydroxymethyl)cyclopropyl)-2,2-dimethyl-2,3-dihydrobenzofuran-5-yl)pyrazolo[1,5-a]pyrimidine-3-carboxamide], the Ki was determined as 88 nM.
For `C[C@@]1(CO)Cc2cc(NC(=O)c3cnn4cccnc34)c(N3CCC(F)(F)C3)cc2O1` [Example 67, N-[(2S)-6-(3,3-Difluoropyrrolidin-1-yl)-2-(hydroxymethyl)-2-methyl-3H-benzofuran-5-yl]pyrazolo[1,5-a]pyrimidine-3-carboxamide], the Ki stood at 4.4 nM.
The result for `N#CCN1Cc2cc(NC(=O)c3cnn4cccnc34)c(N3CCOCC3)cc2C1=O` [Example 253, N-(2-(Cyanomethyl)-6-morpholino-1-oxoisoindolin-5-yl)pyrazolo[1,5-a]pyrimidine-3-carboxamide] reads 20 nM; that for `CC(C)(CO)N1Cc2cc(NC(=O)c3cnn4cccnc34)c(N3CCOCC3)cc2C1=O` [Example 250, N-[2-(2-Hydroxy-1,1-dimethyl-ethyl)-6-morpholino-1-oxo-isoindolin-5-yl]pyrazolo[1,5-a]pyrimidine-3-carboxamide], 24 nM.
Consider `Cn1cncc1CN1CCN(c2cc3c(cc2NC(=O)c2cnn4cccnc24)CC(C)(C)O3)CC1` [Example 506, N-(2,2-dimethyl-6-(4-((1-methyl-1H-imidazol-5-yl)methyl)piperazin-1-yl)-2,3-dihydrobenzofuran-5-yl)pyrazolo[1,5-a]pyrimidine-3-carboxamide], for which the Ki worked out at 5.1 nM.
Then `CC1(C)COc2cc(N3CCOCC3)c(NC(=O)c3cnn4cccnc34)cc2N1` [Example 82, N-(3,3-Dimethyl-7-morpholino-3,4-dihydro-2H-benzo[b][1,4]oxazin-6-yl)pyrazolo[1,5-a]pyrimidine-3-carboxamide], with 190 nM; and `CC1(C)Cc2cc(NC(=O)c3cnn4cccnc34)c(N3CCN(CCn4cccn4)CC3)cc2O1` [Example 462, N-(6-(4-(2-(1H-pyrazol-1-yl)ethyl)piperazin-1-yl)-2,2-dimethyl-2,3-dihydrobenzofuran-5-yl)pyrazolo[1,5-a]pyrimidine-3-carboxamide], with 6.5 nM; and `CNC[C@H]1OC[C@@H](c2cc3c(cc2NC(=O)c2cnn4cccnc24)CC(C)(C)O3)CO1` [Example 20, Cis-N-[2,2-dimethyl-6-[2-(methylaminomethyl)-1,3-dioxan-5-yl]-3H-benzofuran-5-yl]pyrazolo[1,5-a]pyrimidine-3-carboxamide], with 780 nM.
Then `C[C@]1(CO)Cc2cc(NC(=O)c3cnn4cccnc34)c(N3CCC([C@@](C)(O)C(F)(F)F)CC3)cc2O1` [Example 409, N—((R)-2-(hydroxymethyl)-2-methyl-6-(4-((R)-1,1,1-trifluoro-2-hydroxypropan-2-yl)piperidin-1-yl)-2,3-dihydrobenzofuran-5-yl)pyrazolo[1,5-a]pyrimidine-3-carboxamide], with 6.7 nM.
Then `C[C@]1(CO)Cc2cc(NC(=O)c3cnn4cccnc34)c(N3CCC4(CC3)CNC(=O)C4)cc2O1` (single isomer, unassigned) [Example 417], with 3.6 nM.
As for `CNC(=O)[C@@]1(C)Cc2cc(NC(=O)c3cnn4cccnc34)c(N3CCOCC3)cc2O1` [Example 49, (R)—N-(2-Methyl-2-(methylcarbamoyl)-6-morpholino-2,3-dihydrobenzofuran-5-yl)pyrazolo[1,5-a]pyrimidine-3-carboxamide], the Ki is 22 nM.
The result for `C[C@@]1(CO)Cc2cc(NC(=O)c3cnn4cccnc34)c(C(F)(F)F)cc2O1` [Example 72, N-[(2S)-2-(hydroxymethyl)-2-methyl-6-(trifluoromethyl)-3H-benzofuran-5-yl]pyrazolo[1,5-a]pyrimidine-3-carboxamide] reads 450 nM; that for `C[C@H](O)[C@@H](F)CN1Cc2cc(NC(=O)c3cnn4cccnc34)c(N3CCOCC3)cc2C1=O` [Example 561, N-(2-((2S,3S)-2-fluoro-3-hydroxybutyl)-6-morpholino-1-oxoisoindolin-5-yl)pyrazolo[1,5-a]pyrimidine-3-carboxamide], 11 nM.
